The values that follow come from patent US20250121090A1, “Antibody-Drug Conjugates and Methods of Use Thereof” (priority 2021, published 2025).

The test system of data set [1] is L-82 xenograft. Nature of the data set: L-82 xenograft with CD30 ADCs. The data set is classed as in vivo, NOD/SCID mice. Particulars: single i.v. dose 3 mg/kg (equal dosing). As to the method: Female NOD/SCID mice were used (8 mice/group) for the study. Animals were inoculated subcutaneously in the flank with 10 million cells in 50% PBS/50% Matrigel. When tumors reached an average volume of 100 mm^3, all animals were treated (Day 0) with a single 10 mg/kg intravenous dose of human IgG. Then, on Day 1, animals were treated with vehicle alone, with unconjugated antibody (3 mg/kg), or with an ADC at 1.5 or 3 mg/kg. The animals were monitored twice weekly for body weight and tumor size. Animals were euthanized when tumors reached 2000 mm^3. ADCs were highly efficacious in this study.

Data set [2] has as its system Karpas 299 xenograft. Put plainly: Karpas 299 xenograft study with anti-CD30 ADCs. Particulars: single i.v. dose 3 mg/kg (equal dosing).
The subject of data set [3] is Granta 519 xenograft. Nature of the data set: First Granta xenograft study. The data set is classed as in vivo. Particulars: polatuzumab ADCs, single dose on Day 7, equal payload dosing levels. An excerpt:
First Granta Xenograft Study Results: Polatuzumab ADCs carrying MMAE conjugated through five different linker types, including vedotin and CT aldehyde-tagged HIPS conjugates were compared for efficacy at equal payload dosing levels in a Granta 519 xenograft study.

For data set [4], the system named is Male Sprague-Dawley rats. Nature of the data set: Multi-dose non-GLP rat toxicology study #1. To be noted: polatuzumab ADCs, DAR ~4, i.v. weekly for 4 doses (days 1, 8, 15, 22), equal payload/equal antibody dosing. The data set is classed as in vivo.

On to “Adcetris: anti-CD30 ADC used as comparator”, for which the complete responses is 8 complete responses out of 8 mice/group in data set [1] and 6/6 in data set [2].

Regarding polatuzumab vedotin, in data set [3], the “efficacy (tumor growth inhibition)” value is recorded as “longest tumor growth inhibition”. In addition, the “tolerability (white and red blood cell parameters)” value in data set [4] is recorded as “marked myelosuppression”.
